Results published in PMC11187126, “Structure and dynamics of the pyroglutamylated RF-amide peptide QRFP receptor GPR103” (Nature Communications, 2024).
Where two headings read alike, the source gives them in different places. No end group written: not given here.

Target: T1, GPR103 L14N-termA (Homo sapiens, UniProt Q96P65, L14A)
T1 construct: we used human full-length QRFPR-encoding plasmids; expressed in transfected cells; host or cells: HEK293 cells, pCAGGS vector
T1 sequence (Q96P65 1-431 L14A): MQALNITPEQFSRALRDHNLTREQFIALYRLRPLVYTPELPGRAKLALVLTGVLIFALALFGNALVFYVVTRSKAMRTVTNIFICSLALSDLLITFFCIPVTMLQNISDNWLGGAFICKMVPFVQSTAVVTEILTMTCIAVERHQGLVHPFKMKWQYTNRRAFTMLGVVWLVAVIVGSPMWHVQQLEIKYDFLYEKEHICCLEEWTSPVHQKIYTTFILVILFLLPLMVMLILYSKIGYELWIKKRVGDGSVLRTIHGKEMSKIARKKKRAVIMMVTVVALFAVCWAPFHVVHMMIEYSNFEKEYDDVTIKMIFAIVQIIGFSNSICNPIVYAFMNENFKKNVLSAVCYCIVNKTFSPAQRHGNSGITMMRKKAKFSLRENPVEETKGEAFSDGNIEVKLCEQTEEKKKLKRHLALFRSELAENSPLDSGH
Assay: TGFα shedding assay; Exp. level WT (1:5)
Format: cell-based
Protocol: For the TGFα shedding assay and the flow cytometry analysis, we used human full-length QRFPR-encoding plasmids. Specifically, GPR103 was N-terminally modified with an HA signal sequence followed by a FLAG epitope and then a flexible linker ([…]; the FLAG epitope is underlined) and inserted into the pCAGGS vector. Plasmid encoding GPR103 mutants were generated using Quickchange Site-Directed Mutagensis kit (Agilent).
The TGFα shedding assay was performed as described previously with minor modifications. Plasmid transfection was performed in a 6-well plate with a mixture of 500 ng (per well in a 6-well plate) AP-TGFα-encoding plasmid and 200 ng GPR103-encoding plasmid. After 1-day culture, the transfected cells were harvested by trypsinization, pelleted by centrifugation at 190 × g for 5 min, and washed once with 5 mM HEPES (pH 7.4)-containing Hank’s Balanced Salt Solution (HBSS). After centrifugation, the cells were resuspended in 8 mL of the HEPES-containing HBSS. The cell suspension was seeded in a 96-well culture plate (cell plate) at a volume of 90 μL (per well hereafter) and incubated in a 37 °C incubator with 5% CO2 for 30 min. […] After spinning the cell plates at 190 × g for 2 min, 80 μL of conditioned media was transferred to an empty 96-well plate (conditioned media (CM) plate). Then, 80 μL of AP reaction solution (10 mM p-nitrophenylphosphate (p-NPP), 120 mM Tris-HCl (pH 9.5), 40 mM NaCl, and 10 mM MgCl2) was dispensed into the cell plates and the CM plates. Absorbance at 405 nm of the plates was measured using a microplate reader (SpectraMax 340 PC384, Molecular Devices) before and after 1-h incubation at room temperature. Ligand-induced AP-TGFα release was calculated by subtracting spontaneous AP-TGFα release signal from ligand-induced AP-TGFα release signal. The AP-TGFα release signals were fitted to a four-parameter sigmoidal concentration–response curve, using the Prism 10 software (GraphPad Prism). For each replicate experiment, the pEC50 parameter (negative logarithmic values of EC50 values) of the individual GPR103 mutants were normalized to that of the wild-type GPR103 performed in parallel, and resulting ∆pEC50 values were used to denote ligand response activity of the mutants. […]
Exp. le vel: WT (1:5 0)Exp. le vel: WT (1:5 0)Exp. le vel: WT (1:5 0)Exp. le vel: WT (1:2 0)Exp. le vel: WT (1:2 0)Exp. le vel: WT (1:1 0) […]
L1 4N - t e r mA F2 5N - t e r mA I 2 6N - t e r mA Y 2 9N - t e r mA C 9 82 .5 7A T10 22 .6 1A Exp . l eve l: WT (1 :5)Exp . l evel : >WT (1 :1)Exp. le vel: WT (1:2 0)Exp. le vel: WT (1:2 0)Exp. le vel: WT (1:5 0)Exp . l eve l: WT (1 :1) […]
Exp. le vel: WT (1:1 0)Exp. le vel: WT (1:2 0) C 1 1 83 .2 5AExp. le vel: WT (1:5 0)Exp. le vel: WT (1:5 0)Exp. le vel: WT (1:2 0)Exp . l eve l: WT (1 :5) […]
Exp. le vel: WT (1:5 0)Exp. le vel: WT (1:1 0)Exp. le vel: WT (1:5 0) E203ECL2AExp . l evel : >WT (1 :1)Exp. le vel: WT (1:5 0)Exp. le vel: WT (1:5 0) […]
Exp . l eve l: WT (1 :1) F28Exp. le vel: WT (1:5 0) C 2 8 56 .4 7AExp. le vel: WT (1:2 0) WExp. le vel: WT (1:2 0) F28Exp. le vel: WT (1:5 0)Exp . l evel : >WT (1 :1) […]
Exp. le vel: WT (1:5 0)Exp. le vel: WT (1:5 0) C 3 2 77 .4 8AExp . l eve l: WT (1 :5)Exp . l evel : >WT (1 :1)Exp . l evel : >WT (1 :1) […]
Suppl eme nt ary Figure 1 | Mutational analysis of GPR103. […]
mutants. Data are presented as mean values ± SEM, normally n=3-5; dots), each performed in triplicate. b-d Cell-surface expression (b) and QRFP26-in-duced activation of GPR103 (c, d) were analyzed by the flow cytometry and the TGFα shedding assay, respectively. From the concentration–response curves (a), Emax (c) and ΔpEC50 (d) values relative to the wild type were calculated. Colors in the mutant bars indicate an expression level matching to that of titrated wild type. Statistical analyses were performed using the ordinary one-way ANOVA followed by Dunnett tests with the expression-matched […]

TSGPLGNLAEELNGYSRKKGGFSFRF-NH2 [QRFP26] gave an Emax (Exp. #1) of 105.09 % WT, an Emax (Exp. #2) of 97.15 % WT and an Emax (Exp. #3) of 104.38 % WT. The Emax (mean, read-out: Emax) was 102%, the EC50 (n = 3) was 7.59 nM and the Emax (n = 3, read-out: Emax) was 106 ± 2.1%.
